Reference: ChEMBL document CHEMBL5247658, “Development of Fluorescent 4-[4-(3H-Spiro[isobenzofuran-1,4'-piperidin]-1'-yl)butyl]indolyl Derivatives as High-Affinity Probes to Enable the Study of σ Receptors via Fluorescence-Based Techniques” (J Med Chem, 2023)
Values belong to the molecule of their own block, whether it stands above or below them.

Key:
[1] = target: T1, Sigma intracellular receptor 2 (Homo sapiens, UniProt Q5BJF2); experiment: Binding affinity to sigma 2 receptor (unknown origin) assessed as inhibition constant
[2] = Drug uptake in human MCF7 cells expressing sigma 1 receptor assessed as increase in fluorescence intensity in presence of (+)-pentazocine incubated at 1 to 10000 nM for 45 mins by flow cytometric analysis; assay type: ADME, cell-based; conditions: mcf7, 0.75 h, 10 µM, dose 1-10000 nM
[3] = Drug accumulation in human MCF7 TMEM97 knock out cells assessed as increase in mean fluorescence intensity pretreated with (+)-pentazocine for 60 mins followed by compound addition incubated for 45 mins by flow cytometric analysis; assay type: ADME, cell-based; conditions: mcf7, 0.75 h, dose 0.01-1 µM
[4] = target: T1, Sigma intracellular receptor 2; experiment: Binding affinity to sigma 2 receptor in human MCF7 cells assessed as increase in fluorescent intensity pretreated with (+)-pentazocine for 60 mins followed by compound addition incubated for 45 mins by flow cytometric analysis; assay type: cell-based; conditions: dose 0.01-1 µM
[5] = Drug accumulation in human MCF7 cells assessed as increase in mean fluorescence intensity pretreated with (+)-pentazocine for 60 mins followed by compound addition incubated for 45 mins by flow cytometric analysis; assay type: ADME, cell-based; conditions: mcf7, 0.75 h, dose 0.01-1 µM
[6] = target: Sigma non-opioid intracellular receptor 1 (Homo sapiens, UniProt Q99720); experiment: Binding affinity to sigma 1 receptor (unknown origin) assessed as inhibition constant
[7] = target: T2, Sigma non-opioid intracellular receptor 1 (Cavia porcellus, UniProt Q60492); experiment: Displacement of [3H](+)-pentazocine from sigma 1 receptor in guinea pig brain membranes assessed as inhibition constant by Wallac 1450 MicroBeta liquid scintillation counter; assay type: cell membranes, Membrane
[8] = target: T3, Sigma intracellular receptor 2 (Rattus norvegicus, UniProt Q5U3Y7); experiment: Displacement of [3H]RHM-1 from sigma 2 receptor in Wistar Han rat liver membrane assessed as inhibition constant by competitive binding assay; assay type: cell membranes
T3 sequence (Q5U3Y7 whole entry): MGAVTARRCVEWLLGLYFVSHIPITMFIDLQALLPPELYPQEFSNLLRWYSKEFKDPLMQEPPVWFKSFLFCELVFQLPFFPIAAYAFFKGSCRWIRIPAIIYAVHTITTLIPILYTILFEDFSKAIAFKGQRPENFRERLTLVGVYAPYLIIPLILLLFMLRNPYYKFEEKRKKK

[9] = target: T2, Sigma non-opioid intracellular receptor 1; experiment: Displacement of [3H](+)-pentazocine from sigma 1 receptor in guinea pig brain membranes assessed as inhibition constant by competitive binding assay; assay type: cell membranes, Membrane
[10] = target: T3, Sigma intracellular receptor 2; experiment: Displacement of [3H]DTG from sigma 2 receptor in Wistar Han rat liver membrane assessed as inhibition constant by competitive binding assay; assay type: cell membranes

T1 sequence (Q5BJF2 whole entry): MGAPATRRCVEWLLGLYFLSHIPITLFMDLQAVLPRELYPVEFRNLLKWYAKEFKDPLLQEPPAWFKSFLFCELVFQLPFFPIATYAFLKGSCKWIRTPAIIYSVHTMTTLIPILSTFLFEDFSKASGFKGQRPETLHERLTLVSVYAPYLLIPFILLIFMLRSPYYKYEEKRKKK
T2 sequence (Q60492 whole entry): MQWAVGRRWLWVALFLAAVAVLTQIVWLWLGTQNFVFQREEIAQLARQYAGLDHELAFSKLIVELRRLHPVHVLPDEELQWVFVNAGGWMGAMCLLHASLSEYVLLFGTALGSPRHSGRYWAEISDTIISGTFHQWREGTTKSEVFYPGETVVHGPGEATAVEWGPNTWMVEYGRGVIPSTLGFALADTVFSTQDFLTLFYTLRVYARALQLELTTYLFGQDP
Chain of Sigma non-opioid intracellular receptor 1 (Homo sapiens, UniProt Q99720) (Q99720 whole entry): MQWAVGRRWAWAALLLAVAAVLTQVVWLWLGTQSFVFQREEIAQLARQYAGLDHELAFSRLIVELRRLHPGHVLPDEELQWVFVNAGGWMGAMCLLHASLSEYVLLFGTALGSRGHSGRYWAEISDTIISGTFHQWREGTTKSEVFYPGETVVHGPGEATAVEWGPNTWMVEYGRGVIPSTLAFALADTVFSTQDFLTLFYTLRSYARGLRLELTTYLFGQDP

Structure (SMILES): CN(C)c1ccc2c(c1)C(=O)N(Oc1cccc3c1CCCC3CCCN1CCN(C3CCCCC3)CC1)C2=O (configuration not stated)
- Ki [1]: 6.9 nM

Structure (SMILES): C[N+]1=C(/C=C/C=C/C=C2\N(CCCCCC(=O)NCCCCCCn3cc(CCCCN4CCC5(CC4)OCc4ccccc45)c4ccccc43)c3ccccc3C2(C)C)C(C)(C)c2ccccc21.[I-]
- Drug uptake [2]: Not Active
- Drug uptake [3]: Dose-Dependent Effect
- Activity [4]: Dose-Dependent Effect
- Drug uptake [5]: Dose-Dependent Effect

Structure (SMILES): CC1CCN(CCCCc2cccc3cc(OCCCCCCN4C(=O)c5ccc(N(C)C)cc5C4=O)ccc23)CC1
- Ki [6]: 0.03 nM
- Ki [1]: 17.9 nM

Structure (SMILES): C[N+]1=C(/C=C/C=C/C=C2/N(CCCCCC(=O)Nc3ccc4ccn(CCCCN5CCC6(CC5)OCc5ccccc56)c4c3)c3ccccc3C2(C)C)C(C)(C)c2ccccc21.[I-]
- Drug uptake [5]: Dose-Dependent Effect

Continued, values first:

- Ki [7]: 1.05 nM
- Ki [8]: 14 nM
Structure (SMILES): COc1ccc(C)cc1NC(=O)OC1C[C@H]2CCC[C@@H](C1)N2CCCCCCCCCCS(=O)(=O)c1cccc2c(N(C)C)cccc12 (some centres not stated)

- Ki [9]: > 5000 nM
- Ki [10]: 10.2 nM
Structure (SMILES): COc1cc2c(cc1OC)CN(CCCN1CCc3c(OCCCCCCN4C(=O)c5ccc(N(C)C)cc5C4=O)cccc3C1=O)CC2
